From US10597388B2, “Pyridazinone herbicides” (FMC CORPORATION, priority 2014, dated 2020)

Tests used:
Type in all cases: in vivo
[1] = system: barnyardgrass (Echinochloa crus-galli); assay: Test A greenhouse herbicide test, pre- and postemergence
Summary of the method: (§1)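 Visual injury ratings, 0 (no effect) to 100 (complete control), versus untreated plants after roughly 10 d in a greenhouse. Compounds, formulated in a surfactant-containing non-phytotoxic solvent, were sprayed on loam–sand soil after sowing (pre) or on one- to two-leaf plants 2–10 cm tall (post).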

corn (Zea mays) = assay: as above; conditions: Postemergence
Summary of the method: as §1

[2] = system: foxtail, giant (giant foxtail, Setaria faberii); assay: as above
Summary of the method: as §1

kochia (Kochia scoparia) = assay: as above
Summary of the method: as §1

[3] = system: pigweed (Amaranthus retroflexus); assay: as above
Summary of the method: as §1

[4] = system: ragweed (common ragweed, Ambrosia elatior); assay: as above
Summary of the method: as §1

[5] = system: ryegrass, Italian (Italian ryegrass, Lolium multiflorum); assay: as above
Summary of the method: as §1

[6] = system: wheat (Triticum aestivum); assay: as above; conditions: Postemergence
Summary of the method: as §1

[7] = system: lambsquarters (Chenopodium album); assay: Test C greenhouse herbicide test, pre- and postemergence
Summary of the method: (§2)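 Visual 0–100 injury score (100 = complete control) taken against untreated controls after 13–15 d in greenhouse. Test chemicals, formulated in solvent plus surfactant, applied preemergence to seeds in loam–sand soil or postemergence to 1- to 4-leaf plants (2–18 cm).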

[8] = system: nutsedge, yellow (yellow nutsedge, Cyperus esculentus); assay: as above
Summary of the method: as §2

[9] = system: ryegrass, Italian (Italian ryegrass, Lolium multiflorum); assay: as above
Summary of the method: as §2

[10] = Postemergence, 125 g ai/ha, 0 to 100 scale where 0 is no effect and 100 is complete control
[11] = Postemergence, 500 g ai/ha, visual rating after approx. 10 d, 0 to 100 scale (0 no effect, 100 complete control)
[12] = Preemergence, 125 g ai/ha, 0 to 100 scale where 0 is no effect and 100 is complete control
[13] = Preemergence, 500 g ai/ha, 0 to 100 scale where 0 is no effect and 100 is complete control
[14] = 125 g ai/ha, 0 to 100 scale where 0 is no effect and 100 is complete control
[15] = 500 g ai/ha, visual rating after approx. 10 d, 0 to 100 scale (0 no effect, 100 complete control)
[16] = Postemergence, 31 g ai/ha, scale 0 to 100 (0 no effect, 100 complete control)
[17] = Postemergence, 62 g ai/ha, 0 to 100 scale (0 no effect, 100 complete control)
[18] = Postemergence, 250 g ai/ha, scale 0 to 100, 0 no effect, 100 complete control, 13 to 15 d
[19] = Preemergence, 31 g ai/ha, scale 0 to 100, 0 is no effect, 100 is complete control
[20] = Preemergence, 62 g ai/ha, scale 0 to 100, 0 is no effect, 100 is complete control
[21] = Preemergence, 125 g ai/ha, scale 0 to 100, 0 is no effect, 100 is complete control
[22] = Preemergence, 250 g ai/ha, scale 0 to 100 (0 no effect, 100 complete control)
[23] = postemergence, 125 g ai/ha, scale 0 to 100, 0 no effect, 100 complete control
[24] = Postemergence, 16 g ai/ha, scale 0 to 100 (0 no effect, 100 complete control)

COc1nn(C)c(=O)c(-c2c(C)ccc3ccccc23)c1OC(C)=O [Compound 138]
Plant response rating, Barnyardgrass [1, 10]: 20
Plant response rating, Barnyardgrass [1, 11]: 100
Barnyardgrass plant response rating [1, 12]: 10
Plant response rating, Barnyardgrass [1, 13]: 100
Plant response rating, Corn (corn (Zea mays); [14]): 0
Plant response rating, Corn (corn (Zea mays); [15]): 20
Plant response rating, Foxtail, Giant [2, 10]: 90
Plant response rating, Foxtail, Giant [2, 11]: 100
Foxtail, Giant plant response rating [2, 12]: 90
Plant response rating, Foxtail, Giant [2, 13]: 100
Plant response rating, Kochia (kochia (Kochia scoparia); [10]): 100
Plant response rating, Kochia (kochia (Kochia scoparia); [11]): 100
Kochia plant response rating (kochia (Kochia scoparia); [12]): 40
Plant response rating, Kochia (kochia (Kochia scoparia); [13]): 100
Plant response rating, Pigweed [3, 10]: 90
Plant response rating, Pigweed [3, 11]: 100
Pigweed plant response rating [3, 12]: 100
Plant response rating, Pigweed [3, 13]: 100
Plant response rating, Ragweed [4, 10]: 100
Plant response rating, Ragweed [4, 11]: 100
Plant response rating, Ragweed [4, 13]: 100
Plant response rating, Ryegrass, Italian [5, 10]: 90
Plant response rating, Ryegrass, Italian [5, 11]: 100
Plant response rating, Ryegrass, Italian [5, 13]: 100
Plant response rating, Wheat [6, 14]: 0
Plant response rating, Wheat [6, 15]: 20
Plant response rating, Lambsquarters [7, 16]: 90
Lambsquarters plant response rating [7, 17]: 90
Plant response rating, Lambsquarters [7, 18]: 98
Plant response rating, Lambsquarters [7, 19]: 95
Plant response rating, Lambsquarters [7, 20]: 95
Plant response rating, Lambsquarters [7, 21]: 100
Lambsquarters plant response rating [7, 22]: 100
Lambsquarters plant response rating [7, 23]: 95
Plant response rating, Nutsedge, Yellow [8, 16]: 45
Nutsedge, Yellow plant response rating [8, 17]: 65
Plant response rating, Nutsedge, Yellow [8, 18]: 80
Plant response rating, Nutsedge, Yellow [8, 19]: 5
Plant response rating, Nutsedge, Yellow [8, 20]: 60
Plant response rating, Nutsedge, Yellow [8, 21]: 95
Nutsedge, Yellow plant response rating [8, 22]: 90
Nutsedge, Yellow plant response rating [8, 23]: 75
Plant response rating, Ryegrass, Italian [9, 16]: 5
Ryegrass, Italian plant response rating [9, 17]: 5
Plant response rating, Ryegrass, Italian [9, 18]: 70
Plant response rating, Ryegrass, Italian [9, 19]: 55
Plant response rating, Ryegrass, Italian [9, 20]: 90
Plant response rating, Ryegrass, Italian [9, 21]: 90
Ryegrass, Italian plant response rating [9, 22]: 95
Ryegrass, Italian plant response rating [9, 23]: 10

COC(=O)Oc1cnn(C)c(=O)c1-c1c(C)ccc2ccccc12 [Compound 143]
Plant response rating, Barnyardgrass [1, 10]: 20
Plant response rating, Barnyardgrass [1, 11]: 60
Barnyardgrass plant response rating [1, 12]: 20
Plant response rating, Barnyardgrass [1, 13]: 80
Plant response rating, Corn (corn (Zea mays); [14]): 0
Plant response rating, Corn (corn (Zea mays); [15]): 20
Plant response rating, Foxtail, Giant [2, 10]: 20
Plant response rating, Foxtail, Giant [2, 11]: 60
Foxtail, Giant plant response rating [2, 12]: 20
Plant response rating, Foxtail, Giant [2, 13]: 70
Plant response rating, Kochia (kochia (Kochia scoparia); [10]): 70
Plant response rating, Kochia (kochia (Kochia scoparia); [11]): 90
Kochia plant response rating (kochia (Kochia scoparia); [12]): 10
Plant response rating, Kochia (kochia (Kochia scoparia); [13]): 70
Plant response rating, Pigweed [3, 10]: 90
Plant response rating, Pigweed [3, 11]: 90
Pigweed plant response rating [3, 12]: 80
Plant response rating, Pigweed [3, 13]: 100
Plant response rating, Ragweed [4, 10]: 70
Plant response rating, Ragweed [4, 11]: 70
Plant response rating, Ragweed [4, 13]: 90
Plant response rating, Ryegrass, Italian [5, 10]: 80
Plant response rating, Ryegrass, Italian [5, 11]: 100
Plant response rating, Ryegrass, Italian [5, 13]: 100
Plant response rating, Wheat [6, 14]: 0
Plant response rating, Wheat [6, 15]: 50
Plant response rating, Lambsquarters [7, 24]: 10
Plant response rating, Lambsquarters [7, 16]: 50
Lambsquarters plant response rating [7, 17]: 60
Lambsquarters plant response rating [7, 23]: 75
Plant response rating, Nutsedge, Yellow [8, 24]: 10
Plant response rating, Nutsedge, Yellow [8, 16]: 10
Nutsedge, Yellow plant response rating [8, 17]: 40
Nutsedge, Yellow plant response rating [8, 23]: 35
Plant response rating, Ryegrass, Italian [9, 24]: 45
Plant response rating, Ryegrass, Italian [9, 16]: 55
Ryegrass, Italian plant response rating [9, 17]: 60
Ryegrass, Italian plant response rating [9, 23]: 90
